According to ChEMBL document CHEMBL1201862, “PubChem BioAssay data set” (2004):
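Where inhibition never reached the appropriate level, the endpoint shown equals the highest concentration tested. Otherwise, values were interpolated linearly from a five-concentration, 48-hour dose response in 96-well plates. Here, GI50 denotes the concentration required for 50% inhibition of growth.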 Calls of active or inactive are those of the source. Cut-off read from the data, not from the text of the source: active = GI50 up to about 1.1 µM and inactive = higher.

Assays:
Assay in all cases: DTP human tumour cell line panel, 48 h
[1] = test system: NCI-H23
[2] = test system: SN12C
[3] = test system: K562
[4] = test system: SF-268
[5] = test system: BT-549
[6] = test system: CAKI-1
[7] = test system: MDA-MB-435
[8] = test system: HCC 2998
[9] = test system: HT-29
[10] = test system: HOP-62
[11] = test system: UO-31
[12] = test system: NCI-H460
[13] = test system: NCI/ADR-RES
[14] = test system: HCT-15
[15] = test system: SK-MEL-5
[16] = test system: UACC-62
[17] = test system: MCF7
[18] = test system: UACC-257
[19] = test system: MOLT-4
[20] = test system: EKVX

Structure (SMILES)	GI50 [1]	GI50 [2]	GI50 [3]	GI50 [4]	GI50 [5]	GI50 [6]	GI50 [7]	GI50 [8]	GI50 [9]	GI50 [10]	GI50 [11]	GI50 [12]	GI50 [13]	GI50 [14]	GI50 [15]	GI50 [16]	GI50 [17]	GI50 [18]	GI50 [19]	GI50 [20]
Cn1ccc(C(=O)NCCN(CCNC(=O)c2ccn(C)c(=O)c2O)CCNC(=O)c2ccn(C)c(=O)c2O)c(O)c1=O	> 100 µM (inactive)	> 100 µM (inactive)	> 100 µM (inactive)	> 100 µM (inactive)	> 100 µM (inactive)	> 100 µM (inactive)	> 100 µM (inactive)	> 100 µM (inactive)	> 100 µM (inactive)	> 100 µM (inactive)	> 100 µM (inactive)	> 100 µM (inactive)	> 100 µM (inactive)	> 100 µM	> 100 µM (inactive)	> 100 µM (inactive)	> 100 µM (inactive)	> 100 µM (inactive)		
O=Cc1ccc(CCl)cc1	> 10 µM (inactive)		27.1 µM (inactive)	24 µM (inactive)					16.8 µM (inactive)		16.7 µM (inactive)	18.6 µM (inactive)		17.9 µM	16.6 µM (inactive)	12.6 µM (inactive)		17.7 µM (inactive)	22.9 µM (inactive)	45.6 µM (inactive)
Nc1ccc(C2(c3ccc(N)cc3)C3CC4CC(C3)CC2C4)cc1	12.4 µM (inactive)	18.5 µM (inactive)	10.3 µM (inactive)	1.57 µM (inactive)	11.2 µM (inactive)	15 µM (inactive)	14.7 µM (inactive)	20.8 µM (inactive)	0.998 µM (active)	13.6 µM (inactive)	18.2 µM (inactive)		0.0792 µM (active)	14.6 µM		16.3 µM (inactive)	19.5 µM (inactive)	19.2 µM (inactive)	4.95 µM (inactive)	16.4 µM (inactive)
C#CCn1c(=O)c(C#N)c(O)c2cc3ccccc3nc21	> 100 µM (inactive)	> 100 µM (inactive)	> 100 µM (inactive)	> 31.6 µM (inactive)		> 100 µM (inactive)		> 100 µM (inactive)	> 100 µM (inactive)	> 100 µM (inactive)	> 100 µM (inactive)	> 100 µM (inactive)	> 100 µM (inactive)	> 100 µM	> 100 µM (inactive)	> 100 µM (inactive)	> 100 µM (inactive)	> 100 µM (inactive)	> 100 µM (inactive)	> 100 µM (inactive)
CCN(CC)CCN(C(=O)c1ccc(F)cc1)c1ccccc1N	> 10 µM (inactive)	> 10 µM (inactive)	> 10 µM (inactive)	> 10 µM (inactive)		> 10 µM (inactive)	> 10 µM (inactive)	> 10 µM (inactive)	> 10 µM (inactive)	> 10 µM (inactive)	> 10 µM (inactive)	> 10 µM (inactive)	> 10 µM (inactive)	> 10 µM	> 10 µM (inactive)	> 10 µM (inactive)	> 10 µM (inactive)		> 10 µM (inactive)	> 10 µM (inactive)
CC(=O)OCCCCn1cnc2nc(Nc3ccccc3)nc(Cl)c21		90.6 µM (inactive)	99.1 µM (inactive)	> 100 µM (inactive)	26.9 µM (inactive)	14 µM (inactive)	34.4 µM (inactive)	85.3 µM (inactive)	91.6 µM (inactive)	62.7 µM (inactive)	40.6 µM (inactive)	> 100 µM (inactive)	42.4 µM (inactive)	73.1 µM	42.2 µM (inactive)	33.7 µM (inactive)	> 100 µM (inactive)	58.7 µM (inactive)	66.5 µM (inactive)	> 100 µM (inactive)
CCCCC(NC(=O)CC)C(=O)O (configuration not stated)	> 100 µM (inactive)	> 100 µM (inactive)	> 100 µM (inactive)	> 100 µM (inactive)		> 100 µM (inactive)		> 31.6 µM (inactive)	> 100 µM (inactive)	> 100 µM (inactive)	> 100 µM (inactive)	> 100 µM (inactive)	> 100 µM (inactive)	> 100 µM	> 100 µM (inactive)	> 100 µM (inactive)	> 100 µM (inactive)	> 100 µM (inactive)	> 100 µM (inactive)	> 100 µM (inactive)
COc1ccc(-c2nnc(-c3nsc4ccccc34)o2)cc1	> 100 µM (inactive)	59.4 µM (inactive)		65.6 µM (inactive)				77.4 µM (inactive)	67.6 µM (inactive)	44.3 µM (inactive)	25.2 µM (inactive)	45.4 µM (inactive)		31.6 µM	61.9 µM (inactive)	> 100 µM (inactive)		> 100 µM (inactive)		38.8 µM (inactive)
c1ccc2c(c1)SC1Sc3ccccc3[S+]21 (configuration not stated)	18.2 µM (inactive)	5.96 µM (inactive)	6.07 µM (inactive)	18.5 µM (inactive)	20.1 µM (inactive)	17.8 µM (inactive)	18.8 µM (inactive)		27.2 µM (inactive)	31.6 µM (inactive)	20.8 µM (inactive)	29.5 µM (inactive)	19.9 µM (inactive)	> 49.9 µM	7.28 µM (inactive)	17.2 µM (inactive)	25.1 µM (inactive)	17.3 µM (inactive)	13.4 µM (inactive)	22 µM (inactive)
CCCCC1=C(Br)C(=C(Br)Br)OC1=O	4.37 µM (inactive)	2.75 µM (inactive)	3.32 µM (inactive)	2.61 µM (inactive)		2.15 µM (inactive)		6.31 µM (inactive)	3.08 µM (inactive)	7.96 µM (inactive)	11.9 µM (inactive)	4.56 µM (inactive)	4.14 µM (inactive)	2.2 µM	3.71 µM (inactive)	2.42 µM (inactive)	3.54 µM (inactive)	2.48 µM (inactive)	1.83 µM (inactive)	2.49 µM (inactive)
COc1ccc(/C=C/c2cnccn2)cc1OC	> 10 µM (inactive)	> 10 µM (inactive)		> 10 µM (inactive)	> 10 µM (inactive)	> 10 µM (inactive)	> 10 µM (inactive)	> 10 µM (inactive)	> 10 µM (inactive)	> 10 µM (inactive)	> 10 µM (inactive)	> 10 µM (inactive)	> 10 µM (inactive)	> 10 µM	> 10 µM (inactive)	> 10 µM (inactive)	> 10 µM (inactive)	> 10 µM (inactive)		> 10 µM (inactive)
O=C(NC1C2CC3CC(C2)CC1C3)c1cc(/C=C/c2ccccc2)nc(S)n1 (configuration not stated)	> 100 µM (inactive)		> 100 µM (inactive)	> 100 µM (inactive)		> 100 µM (inactive)		> 100 µM (inactive)		> 100 µM (inactive)	> 100 µM (inactive)	> 100 µM (inactive)			> 100 µM (inactive)	> 100 µM (inactive)		> 100 µM (inactive)	> 100 µM (inactive)	> 100 µM (inactive)
COc1c2c(c(O)c3c4c(c(C)cc13)C1OC3(C(OC)OC5CC(C)(O)C(OC6CC(C)(O)C(O)C(C)O6)C(C)O5)OC1C(OC)(O4)C31CO1)C(=O)C(O)CC2OC1CC(C)(O)C(OC(C)=O)C(C)O1 (configuration not stated)	< 0.01 µM (active)	< 0.01 µM (active)	< 0.01 µM (active)	< 0.01 µM (active)		0.052 µM (active)		< 0.01 µM (active)	< 0.01 µM (active)	< 0.01 µM (active)	0.0356 µM (active)	< 0.01 µM (active)		0.0767 µM	< 0.01 µM (active)	< 0.01 µM (active)		< 0.01 µM (active)	< 0.01 µM (active)	< 0.01 µM (active)
O=C(NC1C(O)C(O)C(CO)OC1n1cc(F)c(=O)[nH]c1=O)OCc1ccccc1 (configuration not stated)	> 100 µM (inactive)	> 100 µM (inactive)		> 100 µM (inactive)		> 100 µM (inactive)		> 100 µM (inactive)	> 100 µM (inactive)	> 100 µM (inactive)		> 100 µM (inactive)		> 100 µM	> 100 µM (inactive)			> 100 µM (inactive)		
OCCOCn1nc(-c2ccccc2)nc1-c1cnccn1	> 100 µM (inactive)	> 100 µM (inactive)	> 100 µM (inactive)	> 100 µM (inactive)	> 100 µM (inactive)			> 100 µM (inactive)	> 100 µM (inactive)	> 100 µM (inactive)	> 100 µM (inactive)	> 100 µM (inactive)	> 100 µM (inactive)	> 100 µM	> 100 µM (inactive)	> 100 µM (inactive)	> 100 µM (inactive)	> 100 µM (inactive)	> 100 µM (inactive)	> 100 µM (inactive)
COC(=O)C1OC(Oc2cc(O)c3c(=O)cc(-c4ccc(O)cc4)oc3c2)C(O)C(O)C1O (configuration not stated)	> 100 µM (inactive)	> 100 µM (inactive)	> 100 µM (inactive)	> 100 µM (inactive)		> 100 µM (inactive)		> 100 µM (inactive)	> 100 µM (inactive)	> 100 µM (inactive)	> 100 µM (inactive)	> 100 µM (inactive)	> 100 µM (inactive)	> 100 µM	> 100 µM (inactive)	> 100 µM (inactive)	> 100 µM (inactive)	> 100 µM (inactive)	> 100 µM (inactive)	> 100 µM (inactive)
Nc1ncnc2c1ncn2C=C=CCO	> 100 µM (inactive)	> 100 µM (inactive)	> 100 µM (inactive)		> 100 µM (inactive)	> 100 µM (inactive)	> 100 µM (inactive)	> 100 µM (inactive)	> 100 µM (inactive)	> 100 µM (inactive)	> 100 µM (inactive)	> 100 µM (inactive)	> 100 µM (inactive)	> 100 µM	> 100 µM (inactive)		> 100 µM (inactive)	> 100 µM (inactive)	> 100 µM (inactive)	
